Columns and labels:
MCF7 [1] = test: Potency index, ratio of pinophilin-B IC50 to test compound IC50 against human MCF7 cells; type: functional
A549 [2] = test: Potency index, ratio of pinophilin-B IC50 to test compound IC50 against human A549 cells; type: functional
HeLa [3] = test: Potency index, ratio of pinophilin-B IC50 to test compound IC50 against human HeLa cells; type: functional
MDA-MB-231 [4] = test: Potency index, ratio of pinophilin-B IC50 to test compound IC50 against human MDA-MB-231 cells; type: functional
MDA-MB-231 [5] = test: Cytotoxicity against human MDA-MB-231 cells by MTT assay; type: functional, cell-based
HeLa [6] = test: Cytotoxicity against human HeLa cells by MTT assay; type: functional, cell-based
MGC-803 [7] = test: Cytotoxicity against human MGC803 cells by MTT assay; type: functional, cell-based
MGC-803 [8] = test: Potency index, ratio of pinophilin-B IC50 to test compound IC50 against human MGC803 cells; type: functional
A549 [9] = test: Cytotoxicity against human A549 cells by MTT assay; type: functional, cell-based
MCF7 [10] = test: Cytotoxicity against human MCF7 cells by MTT assay; type: functional, cell-based

SMILES	Ratio IC50 (MCF7 [1])	Ratio IC50 (A549 [2])	Ratio IC50 (HeLa [3])	Ratio IC50 (MDA-MB-231 [4])	IC50 (MDA-MB-231 [5]) [µM]	IC50 (HeLa [6]) [µM]	IC50 (MGC-803 [7]) [µM]	Ratio IC50 (MGC-803 [8])	IC50 (A549 [9]) [µM]	IC50 (MCF7 [10]) [µM]
Cc1cc(O)cc(O)c1C(=O)O[C@H]1[C@@H]2COC([C@H]3[C@H](CO)[C@H]4C(=O)[C@@](C)(O)[C@@H](OC(=O)c5c(C)cc(O)cc5O)[C@@H]5COC(/C=C/CO)=C[C@]453)=CC2=CC(=O)[C@@]1(C)O	30 - 90	30 - 90	30 - 90	30 - 90	1.9	2.5	1.3	30 - 90	1	2.1
Cc1cc(O)cc(O)c1C(=O)O[C@H]1[C@@H]2COC([C@H]3[C@H](CO)[C@@H](CO)[C@@H]3C3=CC4=CC(=O)[C@@](C)(O)[C@@H](OC(=O)c5c(C)cc(O)cc5O)[C@@H]4CO3)=CC2=CC(=O)[C@@]1(C)O	30 - 90	30 - 90	30 - 90	30 - 90	3.8	3	2	30 - 90	3.5	> 10
Cc1cc(O)cc(O)c1C(=O)O[C@H]1[C@@H]2COC(/C=C/CO)=CC2=CC(=O)[C@@]1(C)O [PINOPHILIN B]					97	78	84		89	95
